Molecular target: T1, RgpB (Porphyromonas gingivalis, UniProt P95493)
T1 construct: 0.02 nM RgpB, isolated from culture of Porphyromonas gingivalis; endogenous in cells
Assay: RgpB inhibition, fluorogenic assay
Type: biochemical
Settings: Activity (RgpB IC50), 0.02 nM RgpB, 10 μM Boc-Phe-Ser-Arg-MCA, 90 minutes, 37° C.
Description: The capacities of compounds of the present invention to inhibit the activity of RgpB were measured in a fluorogenic assay similar to those described in Barret Biochemical Journal. 1980, 187(3), 909. The specific assay conditions were as follows. Buffer: pH=7.5, 100 mM Tris-HCl, 75 mM NaCl, 2.5 mM CaCl2, 10 mM cysteine, 1% DMSO after all additions. Protein: 0.02 nM RgpB, isolated from culture of Porphyromonas gingivalis, as described in Pike et al. J. Biol. Chem. 1994, 269(1), 406, and Potempa and Nguyen. Current Protocols in Protein Scienc. 2007, 21.20.1-21.20.27. Fluorogenic substrate: 10 μM Boc-Phe-Ser-Arg-MCA. Time=90 minutes. Temperature=37° C. Each compound: 10 concentrations, starting at either 100 μM or 100 nM, with lower concentrations generated by serial 3-fold dilutions. By testing a range of concentrations for each compound, the concentration required to inhibit the activity of RgpB by 50% (the “IC50”) was determined.

T1 sequence (P95493 230-664): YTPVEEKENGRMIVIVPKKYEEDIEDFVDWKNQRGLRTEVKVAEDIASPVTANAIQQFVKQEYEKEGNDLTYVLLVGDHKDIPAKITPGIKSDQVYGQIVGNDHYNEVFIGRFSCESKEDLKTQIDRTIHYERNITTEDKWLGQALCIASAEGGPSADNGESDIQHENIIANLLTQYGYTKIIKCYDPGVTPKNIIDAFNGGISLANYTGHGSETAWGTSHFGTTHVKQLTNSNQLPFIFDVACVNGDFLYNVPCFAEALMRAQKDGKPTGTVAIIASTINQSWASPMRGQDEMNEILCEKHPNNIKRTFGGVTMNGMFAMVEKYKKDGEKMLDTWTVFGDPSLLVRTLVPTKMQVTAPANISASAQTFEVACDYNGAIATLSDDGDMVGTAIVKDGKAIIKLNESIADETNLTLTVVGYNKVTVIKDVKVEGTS

Row | SMILES | IC50 (pH=7.5) [µM] | IC50 (compound not tested above 1 μM) [µM]
1 | N#CN1C[C@@H](O)C[C@@H]1c1ccc2c(N)nccc2c1 [Compound 50b, (2R,4S)-2-(1-aminoisoquinolin-6-yl)-4-hydroxypyrrolidine-1-carbonitrile] | < 0.1 | –
2 | Nc1cc(CC(NC(=O)C2CCCC2)C(=O)COc2ccon2)ccn1 (stereo not shown) [Compound 70, N-(1-(2-aminopyridin-4-yl)-4-(isoxazol-3-yloxy)-3-oxobutan-2-yl)cyclopentanecarboxamide] | 0.1 to 1 | –
3 | CC(C)N(C#N)CCc1ccnc(N)c1 [Compound 5, N-(2-(2-aminopyridin-4-yl)ethyl)-N-isopropylcyanamide] | 10 to 100 | –
4 | COC(C)(C)C(=O)NC(Cc1ccc(N)nc1)C(=O)COc1c(F)ccc(F)c1F (stereo not shown) [Compound 61, N-(1-(6-aminopyridin-3-yl)-3-oxo-4-(2,3,6-trifluorophenoxy)butan-2-yl)-2-methoxy-2-methylpropanamide] | < 0.1 | –
5 | N#CN1CCC(Sc2ccnc(N)c2)C1 (stereo not shown) [Compound 38, 3-((2-aminopyridin-4-yl)thio)pyrrolidine-1-carbonitrile] | 10 to 100 | –
6 | N#CN1CCC[C@H]1COc1ccnc(N)c1Cl [Compound 42, (S)-2-(((2-amino-3-chloropyridin-4-yl)oxy)methyl)pyrrolidine-1-carbonitrile] | 10 to 100 | –
7 | COC(C)(C)C(=O)NC(Cc1ccnc(N)c1)C(=O)COC(C(F)(F)F)C(F)(F)F (stereo not shown) [Compound 73, N-(1-(2-aminopyridin-4-yl)-4-((1,1,1,3,3,3-hexafluoropropan-2-yl)oxy)-3-oxobutan-2-yl)-2-methoxy-2-methylpropanamide] | – | > 1
8 | Nc1ccc(C[C@@H](NC(=O)C2CCCC2)C(=O)COc2c(F)c(F)cc(F)c2F)cn1 [Compound 57, (R)—N-(1-(6-aminopyridin-3-yl)-3-oxo-4-(2,3,5,6-tetrafluorophenoxy)butan-2-yl)cyclopentanecarboxamide] | < 0.1 | –
9 | N#CN1CCCCC1c1ccc2c(N)nccc2c1 (stereo not shown) [Compound 37, 2-(1-aminoisoquinolin-6-yl)piperidine-1-carbonitrile] | 0.1 to 1 | –
10 | CN(C#N)Cc1cc2ccnc(N)c2o1 [Compound 48, N-((7-aminofuro[2,3-c]pyridin-2-yl)methyl)-N-methylcyanamide] | 0.1 to 1 | –
11 | N#CN1CCCC1COc1ccnc(N)c1 (stereo not shown) [Compound 3, 2-(((2-aminopyridin-4-yl)oxy)methyl)pyrrolidine-1-carbonitrile] | 0.1 to 1 | –
12 | COC(C)(C)C(=O)NC(Cc1ccc(N)nc1)C(=O)COc1ccon1 (stereo not shown) [Compound 59, N-(1-(6-aminopyridin-3-yl)-4-(isoxazol-3-yloxy)-3-oxobutan-2-yl)-2-methoxy-2-methylpropanamide] | 0.1 to 1 | –
13 | COC(C)(C)C(=O)NC(Cc1ccnc(N)c1)C(=O)COc1c(F)c(F)cc(F)c1F (stereo not shown) [Compound 65, N-(1-(2-aminopyridin-4-yl)-3-oxo-4-(2,3,5,6-tetrafluorophenoxy)butan-2-yl)-2-methoxy-2-methylpropanamide] | < 0.1 | –
14 | N#CN1CCCC1CCc1ccnc(N)c1 (stereo not shown) [Compound 21, 2-(2-(2-aminopyridin-4-yl)ethyl)pyrrolidine-1-carbonitrile] | 0.1 to 1 | –
15 | N#CN1CCC[C@H]1COc1cc(N)ncc1Cl [Compound 41, (S)-2-(((2-amino-5-chloropyridin-4-yl)oxy)methyl)pyrrolidine-1-carbonitrile] | 10 to 100 | –
16 | N#CN1CCC[C@H]1COc1cc(N)ncc1Br [Compound 30, (S)-2-(((2-amino-5-bromopyridin-4-yl)oxy)methyl)pyrrolidine-1-carbonitrile] | 10 to 100 | –
17 | N#CN1CCC(COc2ccnc(N)c2)C1 (stereo not shown) [Compound 47, 3-(((2-aminopyridin-4-yl)oxy)methyl)pyrrolidine-1-carbonitrile] | 1 to 10 | –
18 | N#CN1CCCCC1COc1ccnc(N)c1 (stereo not shown) [Compound 12, 2-(((2-aminopyridin-4-yl)oxy)methyl)piperidine-1-carbonitrile] | 0.1 to 1 | –
19 | N#CN(CCOc1ccnc(N)c1)C1CCCCC1 [Compound 40, N-(2-((2-aminopyridin-4-yl)oxy)ethyl)-N-cyclohexylcyanamide] | 10 to 100 | –
